The molecules below were run on apyrase (assay: Screen for apyrase inhibitors (Method 1, in vitro phosphate-release absorbance assay)). Conditions: inhibitor conc at 1 mM stock, 1 hr room temperature, absorbance 630 nm; rounded average of two assay results.
Format: biochemical
In short: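 Phosphate-release colorimetric assay (Windsor method) in 60 mM Hepes, 3 mM MgCl2, 3 mM CaCl2, 3 mM ATP, pH 6.5, with compound or DMSO control added. Released phosphate developed with ammonium molybdate and ascorbic acid/TCA, then stopped with citrate/acetic acid.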
`COc1ccc(NS(=O)(=O)c2cccc(NC(=O)c3cc4c(s3)CCC4)c2)cc1` [I-742, N-(3-(N-(4-methoxyphenyl)sulfamoyl)phenyl)-5,6-dihydro-4H-cyclopenta[b]thiophene-2-carboxamide] was tested, and the “% Inhibition of Apyrase” value was 50%. In the case of `CSc1ncccc1C(=O)Nc1cccc(S(=O)(=O)N(C)c2ccccc2)c1` [I-743, N-(3-(N-methyl-N-phenylsulfamoyl)phenyl)-2-(methylthio)nicotinamide], the “% Inhibition of Apyrase” value is reported as 49%. `Cc1cnc(C(=O)Nc2cccc(S(=O)(=O)Nc3cccc(Cl)c3)c2)cn1` [I-744, N-(3-(N-(3-chlorophenyl)sulfamoyl)phenyl)-5-methylpyrazine-2-carboxamide] was tested, and the “% Inhibition of Apyrase” value was 49%. With `O=C(Nc1cccc(S(=O)(=O)Nc2ccccc2Cl)c1)c1ccccn1` [I-745, N-(3-(N-(2-chlorophenyl)sulfamoyl)phenyl)picolinamide] the “% Inhibition of Apyrase” value was 46%. With `O=C(Nc1cccc(S(=O)(=O)Nc2ccccc2Cl)c1)c1ccc(Cl)nc1` [I-746, 6-chloro-N-(3-(N-(2-chlorophenyl)sulfamoyl)phenyl)nicotinamide] the “% Inhibition of Apyrase” value was 45%. In the case of `Cc1occc1C(=O)Nc1cccc(S(=O)(=O)Nc2cccc(C(F)(F)F)c2)c1` [I-747, 2-methyl-N-(3-(N-(3-(trifluoromethyl)phenyl)sulfamoyl)phenyl) furan-3-carboxamide], the “% Inhibition of Apyrase” value is reported as 44%. For `Cc1cc(C(=O)Nc2cccc(S(=O)(=O)N(C)c3ccccc3)c2)on1` [I-748, 3-methyl-N-(3-(N-methyl-N-phenylsulfamoyl)phenyl)isoxazole-5-carboxamide], the “% Inhibition of Apyrase” value was 42%. `COc1ccc(NS(=O)(=O)c2cccc(NC(=O)c3ccc(Cl)s3)c2)cc1` [I-749, 5-chloro-N-(3-(N-(4-methoxyphenyl)sulfamoyl)phenyl)thiophene-2-carboxamide] was tested, and the “% Inhibition of Apyrase” value was 41%. For `Cn1nc(C(=O)Nc2cccc(S(=O)(=O)Nc3cccc(C(F)(F)F)c3)c2)c2ccccc2c1=O` [I-750, 3-methyl-4-oxo-N-(3-(N-(3-(trifluoromethyl)phenyl)sulfamoyl)phenyl)-3,4-dihydrophthalazine-1-carboxamide], the “% Inhibition of Apyrase” value was 41%. In the case of `CCOc1ccc(NS(=O)(=O)c2cccc(NC(=O)c3cccnc3)c2)cc1Br` [I-751, N-(3-(N-(3-bromo-4-ethoxyphenyl)sulfamoyl)phenyl)nicotinamide], the “% Inhibition of Apyrase” value is reported as 41%. `O=C(Nc1cccc(S(=O)(=O)Nc2ccccc2Cl)c1)c1cnccn1` [I-752, N-(3-(N-(2-chlorophenyl)sulfamoyl)phenyl)pyrazine-2-carboxamide] was tested, and the “% Inhibition of Apyrase” value was 40%. With `COc1cc(C(=O)Nc2cccc(S(=O)(=O)N(C)c3ccccc3)c2)ncn1` [I-753, 6-methoxy-N-(3-(N-methyl-N-phenylsulfamoyl)phenyl)pyrimidine-4-carboxamide] the “% Inhibition of Apyrase” value was 37%. With `CN(c1ccccc1)S(=O)(=O)c1cccc(NC(=O)c2ccc3ccccc3n2)c1` [I-754, N-(3-(N-methyl-N-phenylsulfamoyl)phenyl)quinoline-2-carboxamide] the “% Inhibition of Apyrase” value was 36%. `CN(c1ccccc1)S(=O)(=O)c1cccc(NC(=O)c2ccc(=O)[nH]n2)c1` [I-755, N-(3-(N-methyl-N-phenylsulfamoyl)phenyl)-6-oxo-1,6-dihydropyridazine-3-carboxamide] was tested, and the “% Inhibition of Apyrase” value was 33%. `O=C(Nc1cccc(S(=O)(=O)Nc2ccccc2Cl)c1)c1cnc(Cl)c(Cl)c1` [I-756, 5,6-dichloro-N-(3-(N-(2-chlorophenyl)sulfamoyl)phenyl)nicotinamide] was tested, and the “% Inhibition of Apyrase” value was 30%. In the case of `CCOc1ncccc1C(=O)Nc1cccc(S(=O)(=O)Nc2ccccc2OC)c1` [I-757, 2-ethoxy-N-(3-(N-(2-methoxyphenyl)sulfamoyl)phenyl) nicotinamide], the “% Inhibition of Apyrase” value is reported as 29%. With `O=C(Nc1cccc(S(=O)(=O)Nc2cccc(C(F)(F)F)c2)c1)c1cccnc1` [I-758, N-(3-(N-(3-(trifluoromethyl)phenyl)sulfamoyl)phenyl) nicotinamide] the “% Inhibition of Apyrase” value was 28%.
